Experimental data from ChEMBL document CHEMBL1201862, “PubChem BioAssay data set” (2004).
The source made the active and inactive calls.

Legend:
Beta-lactamase [1] = target: Beta-lactamase (Salmonella choleraesuis (strain SC-B67), UniProt Q5J463)
[2] = target: T1, Zinc finger protein mex-5 (Caenorhabditis elegans, UniProt Q9XUB2); test: potency of MEX-5 RNA-binding blockers – biochemical, C. elegans, fluorescence polarization, dose response (AID 1960)
T1 sequence (Q9XUB2 whole entry): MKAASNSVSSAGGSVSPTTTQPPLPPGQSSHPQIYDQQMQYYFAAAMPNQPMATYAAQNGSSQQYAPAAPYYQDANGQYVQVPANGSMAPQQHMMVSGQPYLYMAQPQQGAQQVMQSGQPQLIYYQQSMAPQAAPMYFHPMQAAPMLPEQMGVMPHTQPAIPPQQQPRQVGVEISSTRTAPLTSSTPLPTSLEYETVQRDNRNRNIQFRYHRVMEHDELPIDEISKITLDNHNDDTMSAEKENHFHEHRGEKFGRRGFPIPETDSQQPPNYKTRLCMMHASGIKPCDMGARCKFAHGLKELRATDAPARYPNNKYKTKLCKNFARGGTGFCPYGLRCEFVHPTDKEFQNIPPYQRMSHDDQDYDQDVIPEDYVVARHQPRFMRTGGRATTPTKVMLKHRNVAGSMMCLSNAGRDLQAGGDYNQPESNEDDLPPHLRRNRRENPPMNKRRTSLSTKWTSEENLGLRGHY

H9c2 = test: cells; type: functional, cell-based; details: Rattus norvegicus, H9c2, Myocardium;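 note: confirmatory concentration-response retest of ultra-high-throughput screening hits for modulation of myocardial damage; cell death induced by hydrogen peroxide oxidative stress; compound pretreatment for 60 min then peroxide exposure for 2 h; potency is for protecting the cells against peroxide damage rather than for killing them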
[3] = target: T2, Polyadenylate-binding protein 1 (Homo sapiens, UniProt P11940); test: MLLE binding blockers, Cy5 peptide tracer – biochemical, fluorescence polarization, Cy5-PAM2 peptide, secondary, miRNA deadenylation inhibitor project, dose response (AID 602260); type: functional; details: read-out: IC50_Mean
T2 sequence (P11940 whole entry): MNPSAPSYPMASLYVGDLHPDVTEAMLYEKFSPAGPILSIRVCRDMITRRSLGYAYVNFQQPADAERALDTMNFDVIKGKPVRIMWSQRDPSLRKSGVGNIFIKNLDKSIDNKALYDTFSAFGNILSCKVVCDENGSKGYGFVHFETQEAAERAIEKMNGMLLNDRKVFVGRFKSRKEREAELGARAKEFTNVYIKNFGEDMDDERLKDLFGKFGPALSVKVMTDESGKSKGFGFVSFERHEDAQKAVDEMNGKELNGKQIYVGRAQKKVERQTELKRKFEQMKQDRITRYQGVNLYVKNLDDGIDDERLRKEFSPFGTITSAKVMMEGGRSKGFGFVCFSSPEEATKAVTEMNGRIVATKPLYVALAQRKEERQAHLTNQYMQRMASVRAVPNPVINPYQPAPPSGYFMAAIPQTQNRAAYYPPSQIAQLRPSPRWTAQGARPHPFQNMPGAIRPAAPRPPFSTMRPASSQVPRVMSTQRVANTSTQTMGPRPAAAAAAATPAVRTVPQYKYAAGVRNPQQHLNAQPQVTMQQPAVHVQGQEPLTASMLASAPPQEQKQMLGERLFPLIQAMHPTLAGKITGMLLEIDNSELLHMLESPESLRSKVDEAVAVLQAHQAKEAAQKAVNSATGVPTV

Beta-lactamase [4] = target: Beta-lactamase (Pseudomonas aeruginosa, UniProt Q79MP6);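 note: biochemical dose-response test of metallo-beta-lactamase enzyme inhibition, read out by epi-absorbance; purified recombinant IMP-1 metallo-beta-lactamase with nitrocefin as substrate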
Beta-lactamase (Pseudomonas aeruginosa, UniProt Q79MP6), sequence (Q79MP6 whole entry, the tested form may be a part): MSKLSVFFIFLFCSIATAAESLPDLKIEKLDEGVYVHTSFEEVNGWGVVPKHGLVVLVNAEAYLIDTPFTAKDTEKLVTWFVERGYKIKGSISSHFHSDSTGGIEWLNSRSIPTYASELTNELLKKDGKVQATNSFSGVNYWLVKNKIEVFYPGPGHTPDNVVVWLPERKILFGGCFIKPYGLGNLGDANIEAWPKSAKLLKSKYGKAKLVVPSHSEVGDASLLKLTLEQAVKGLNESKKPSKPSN

[5] = target: T3, RNA-binding protein pos-1 (Caenorhabditis elegans, UniProt G5EF15); test: disruptors of C. elegans POS-1 RNA interaction – biochemical, fluorescence polarization, dose response (AID 1964);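 note: purified POS-1 fused to maltose binding protein made in E. coli; potency of compounds blocking POS-1 binding to fluorescent RNA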
T3 sequence (G5EF15 whole entry): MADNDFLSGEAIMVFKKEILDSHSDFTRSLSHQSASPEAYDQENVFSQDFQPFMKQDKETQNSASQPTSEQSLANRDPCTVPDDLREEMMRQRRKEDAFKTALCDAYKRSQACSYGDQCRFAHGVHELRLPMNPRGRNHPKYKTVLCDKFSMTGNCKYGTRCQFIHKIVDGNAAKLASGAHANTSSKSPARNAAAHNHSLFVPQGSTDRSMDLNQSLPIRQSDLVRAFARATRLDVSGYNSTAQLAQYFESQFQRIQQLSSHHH

[6] = target: T2, Polyadenylate-binding protein 1; test: MLLE domain peptide-binding blockers, IC50 – biochemical, fluorescence polarization, FITC-PAM2 peptide, dose response (AID 602259); type: functional; details: read-out: IC50_Mean
[7] = target: NAD-dependent protein deacylase sirtuin-5, mitochondrial (Homo sapiens, UniProt Q9NXA8); test: sirtuin-5 deacylation blockers, concentration series – biochemical, fluorescence imaging, cherry-pick, set 5, dose response (AID 720591);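 note: desuccinylation of succinyl peptide AMC substrate read as fluorescence after trypsin release; potency of inhibitors that lower fluorescence and may act on trypsin instead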
NAD-dependent protein deacylase sirtuin-5, mitochondrial, sequence (Q9NXA8 whole entry): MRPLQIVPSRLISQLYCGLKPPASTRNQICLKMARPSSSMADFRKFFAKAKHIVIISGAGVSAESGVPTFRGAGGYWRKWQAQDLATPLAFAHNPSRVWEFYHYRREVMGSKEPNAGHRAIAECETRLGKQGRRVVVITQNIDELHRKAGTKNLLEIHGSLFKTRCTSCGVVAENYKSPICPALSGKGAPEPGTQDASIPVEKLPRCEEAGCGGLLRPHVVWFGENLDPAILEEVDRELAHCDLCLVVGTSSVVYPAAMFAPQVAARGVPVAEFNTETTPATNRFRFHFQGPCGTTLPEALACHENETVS

[8] = Counterscreen for activators of the function of SWI/SNF related, matrix associated, actin dependent regulator of chromatin, subfamily a, member 2 (SMARCA2, BRM): Luminescence-based cell-based high throughput dose response assay to identify non-selective compounds using the VP16 reporter assay.; type: functional
[9] = target: SWI/SNF-related matrix-associated actin-dependent regulator of chromatin subfamily A member 2 (Homo sapiens, UniProt P51531); test: Luminescence-based cell-based high throughput dose response assay to identify activators of the function of SWI/SNF related, matrix associated, actin dependent regulator of chromatin, subfamily a, member 2 (SMARCA2, BRM).; type: functional
SWI/SNF-related matrix-associated actin-dependent regulator of chromatin subfamily A member 2, sequence (P51531 whole entry): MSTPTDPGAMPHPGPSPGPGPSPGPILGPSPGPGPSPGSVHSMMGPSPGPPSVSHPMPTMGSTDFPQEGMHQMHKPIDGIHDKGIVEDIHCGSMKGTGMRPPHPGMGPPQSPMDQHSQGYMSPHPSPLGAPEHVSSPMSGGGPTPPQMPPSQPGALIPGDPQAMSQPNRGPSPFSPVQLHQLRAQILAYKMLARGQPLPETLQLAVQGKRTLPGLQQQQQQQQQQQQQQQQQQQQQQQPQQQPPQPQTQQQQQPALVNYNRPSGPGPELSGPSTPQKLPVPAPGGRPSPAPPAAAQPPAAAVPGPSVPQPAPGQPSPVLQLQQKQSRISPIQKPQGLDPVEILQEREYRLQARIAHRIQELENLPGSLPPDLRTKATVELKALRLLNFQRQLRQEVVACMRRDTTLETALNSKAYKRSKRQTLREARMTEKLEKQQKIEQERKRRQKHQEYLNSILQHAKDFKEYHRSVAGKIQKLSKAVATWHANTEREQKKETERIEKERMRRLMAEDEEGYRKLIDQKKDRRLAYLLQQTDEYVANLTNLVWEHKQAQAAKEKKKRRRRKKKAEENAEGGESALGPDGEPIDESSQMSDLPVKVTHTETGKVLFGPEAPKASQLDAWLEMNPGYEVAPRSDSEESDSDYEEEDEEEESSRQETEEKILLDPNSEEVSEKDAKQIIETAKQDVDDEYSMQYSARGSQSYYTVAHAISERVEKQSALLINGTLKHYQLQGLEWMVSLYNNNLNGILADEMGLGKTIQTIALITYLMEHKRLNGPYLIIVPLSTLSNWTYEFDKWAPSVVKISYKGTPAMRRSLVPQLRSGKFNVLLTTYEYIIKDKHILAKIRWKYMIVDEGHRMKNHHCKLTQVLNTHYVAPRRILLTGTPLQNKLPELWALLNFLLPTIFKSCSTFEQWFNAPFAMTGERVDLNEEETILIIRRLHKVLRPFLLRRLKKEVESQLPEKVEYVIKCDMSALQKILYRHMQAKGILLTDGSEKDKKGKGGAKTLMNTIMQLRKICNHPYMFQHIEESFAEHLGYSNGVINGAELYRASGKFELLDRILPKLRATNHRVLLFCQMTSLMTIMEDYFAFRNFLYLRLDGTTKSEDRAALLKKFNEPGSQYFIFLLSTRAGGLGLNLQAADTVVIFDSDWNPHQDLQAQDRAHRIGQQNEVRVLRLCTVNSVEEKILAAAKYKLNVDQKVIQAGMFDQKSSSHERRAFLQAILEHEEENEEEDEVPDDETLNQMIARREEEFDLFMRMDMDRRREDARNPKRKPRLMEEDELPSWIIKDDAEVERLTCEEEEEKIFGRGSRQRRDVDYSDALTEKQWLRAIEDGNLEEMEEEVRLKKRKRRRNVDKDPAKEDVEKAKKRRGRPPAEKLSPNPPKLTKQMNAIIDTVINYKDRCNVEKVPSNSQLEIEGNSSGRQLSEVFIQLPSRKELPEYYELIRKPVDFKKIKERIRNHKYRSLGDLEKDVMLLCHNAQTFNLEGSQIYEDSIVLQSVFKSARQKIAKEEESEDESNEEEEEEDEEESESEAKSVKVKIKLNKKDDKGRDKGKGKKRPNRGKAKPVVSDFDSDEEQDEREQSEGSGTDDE

[10] = activation of miR-122 Renilla sensor silencing – cell-based, Huh7 psiCHECK-miR122, Renilla luciferase, cherry-picked, dose response (AID 651956); type: functional;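 note: huh7 hepatoma cells stably carrying a psiCHECK-2 miR-122 sensor plasmid; renilla luciferase signal reporting endogenous miR-122 activity after 48 h compound exposure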
[11] = general mammalian cell viability loss – activator set, cherry-pick, cytotoxicity control for miR-122 modulator project, dose response (AID 720690); type: functional, cell-based;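 note: HEK293T human cells scored for general mammalian cytotoxicity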
[12] = OVCAR-3 cell viability loss – plate reader, dry powder samples, PAX8 inhibitor project, dose response (AID 743044); type: functional, cell-based
[13] = A2780 cell killing – plate reader, dry powder samples, cytotoxicity control, dose response (AID 743046); type: functional, cell-based
[14] = OVCAR8 cell viability loss – plate reader, dry powder samples, PAX8 project, dose response (AID 743197); type: functional, cell-based; details: OVCAR-8
Paired box protein Pax-8 = Paired box protein Pax-8 (Homo sapiens, UniProt Q06710); test: PAX8 transcriptional activity inhibition in RMG-I – RMG-I cells, luciferase, cherry-pick, dose response (AID 687027); type: functional, cell-based;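 note: luciferase reporter driven by Pax8 target thyroperoxidase promoter measured by SteadyGlo luminescence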
Paired box protein Pax-8, sequence (Q06710 whole entry): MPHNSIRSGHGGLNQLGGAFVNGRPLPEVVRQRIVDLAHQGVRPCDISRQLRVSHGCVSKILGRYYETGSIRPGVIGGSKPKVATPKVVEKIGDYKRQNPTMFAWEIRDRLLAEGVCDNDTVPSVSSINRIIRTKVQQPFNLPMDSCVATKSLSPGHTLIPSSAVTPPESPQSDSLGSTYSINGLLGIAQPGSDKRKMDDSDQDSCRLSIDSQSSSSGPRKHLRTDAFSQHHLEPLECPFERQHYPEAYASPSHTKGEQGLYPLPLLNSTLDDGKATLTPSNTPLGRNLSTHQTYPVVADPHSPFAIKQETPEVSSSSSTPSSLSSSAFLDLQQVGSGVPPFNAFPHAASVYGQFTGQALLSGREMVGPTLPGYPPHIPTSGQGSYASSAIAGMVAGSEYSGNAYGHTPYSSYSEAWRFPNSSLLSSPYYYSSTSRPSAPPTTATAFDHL

Cryptococcus neoformans = test: PubChem AID 686997; type: functional, organism-based
[15] = Dd2 malaria parasite growth inhibition potency – SYBR Green, dry powder samples, dose response (AID 1159566); type: functional, cell-based;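 note: potency for growth inhibition with lower SYBR green DNA signal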
[16] = growth inhibition of yeast DHODH-expressing 3D7 parasites – SYBR Green, dry powder samples, dose response (AID 1159570); type: functional, cell-based;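 note: parasite growth measured after 72 hours of compound exposure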
[17] = P. falciparum Dd2 growth inhibitors, dose response, SYBR Green, cherry-picked samples (AID 1159567); type: functional, cell-based
[18] = growth inhibition of PfATP4-mutant resistant parasites – NITD609-resistant line, SYBR Green, dry powder, dose response (AID 1159571); type: functional, cell-based;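 note: parasites synchronized at ring stage by sorbitol before testing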
[19] = viability loss in CEM21 cells – cell-based, plate reader, dry powder, cytotoxicity control, dose response (AID 687026); type: functional
[20] = Reduced DLD-1 viability, concentration-response, CellTiter-Glo luminescence (AID 1117352); type: functional
[21] = SNU-C1 cell viability reduction, dose response, CellTiter-Glo luminescence (AID 1117323); type: functional, cell-based
[22] = cytotoxicity toward HT-29 cells – cell-based, CellTiter-Glo luminescence, IC50, dose response (AID 1117330); type: functional
[23] = cytotoxicity toward HCT116 cells – cell-based, CellTiter-Glo luminescence, IC50, dose response (AID 1117332); type: functional; details: HCT-116
Cytochrome P450 3A4 = Cytochrome P450 3A4 (Homo sapiens, UniProt P08684);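 note: CYP3A4 tested as one member of a cytochrome P450 panel screen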
Cytochrome P450 3A4, sequence (P08684 whole entry): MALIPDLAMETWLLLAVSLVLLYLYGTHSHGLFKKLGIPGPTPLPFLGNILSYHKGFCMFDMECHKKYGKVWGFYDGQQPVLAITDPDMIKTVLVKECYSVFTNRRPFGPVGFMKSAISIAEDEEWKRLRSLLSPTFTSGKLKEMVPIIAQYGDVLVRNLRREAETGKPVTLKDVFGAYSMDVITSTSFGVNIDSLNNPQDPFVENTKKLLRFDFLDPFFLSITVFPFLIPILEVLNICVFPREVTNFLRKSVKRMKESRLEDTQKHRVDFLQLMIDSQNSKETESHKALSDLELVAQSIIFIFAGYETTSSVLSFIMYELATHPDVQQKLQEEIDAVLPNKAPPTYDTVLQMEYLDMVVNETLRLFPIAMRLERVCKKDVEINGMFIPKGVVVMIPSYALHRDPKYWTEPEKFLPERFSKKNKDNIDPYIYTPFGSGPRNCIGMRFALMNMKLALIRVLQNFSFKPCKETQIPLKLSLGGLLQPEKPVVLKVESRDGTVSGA

[24] = CellTiter-Glo luminescence survival assay, SW480 colon tumor line, concentration-response curve, half-maximal inhibitory concentration (AID 1117338); type: functional
[25] = RKO cell viability reduction, dose response, CellTiter-Glo luminescence (AID 1117322); type: functional
[26] = cytotoxicity toward Colo320 cells – cell-based, CellTiter-Glo luminescence, IC50, dose response (AID 1117334); type: functional; details: COLO 320

Beta-lactamase (Salmonella choleraesuis (strain SC-B67), UniProt Q5J463), sequence (Q5J463 whole entry): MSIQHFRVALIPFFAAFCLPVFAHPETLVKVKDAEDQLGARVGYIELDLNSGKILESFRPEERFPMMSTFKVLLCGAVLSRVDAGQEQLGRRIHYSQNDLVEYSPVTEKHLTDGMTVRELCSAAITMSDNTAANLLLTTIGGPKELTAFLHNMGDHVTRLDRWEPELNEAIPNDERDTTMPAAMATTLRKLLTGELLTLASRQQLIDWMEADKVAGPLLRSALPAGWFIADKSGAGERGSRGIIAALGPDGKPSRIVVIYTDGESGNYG

With CCOC(=O)c1c2c3c(cccc3n(C)c1=O)C(=O)c1ccccc1-2 as the compound, how does the IC50 (Beta-lactamase [1]) read?
Its IC50 is > 59.6 µM (inactive).

What about the EC50 [2] of the same compound?
The EC50 was 9.59 µM (active).

What about the IC50 (H9c2) of the same compound?
Its IC50 is > 79 µM (inactive).

And the IC50 [3]?
The IC50 was > 66 µM (inactive).

What about the IC50 (Beta-lactamase [4]) of the same compound?
The IC50 was > 59.6 µM (inactive).

And the EC50 [5]?
The EC50 was 8.67 µM (inconclusive).

What about the IC50 [6] of the same compound?
Its IC50 is 37.2 µM (inactive).

Which AC50 [7] does the source give for COc1cc(C(=O)Nc2nnc(Cc3ccccc3)s2)cc(OC)c1OC here?
The AC50 was > 30 µM (inactive).

Which results are given for C=C1C(=O)OC2C1CCC(C)C1(O)C=CC(=O)C21C (stereo not drawn)?
EC50 [8]: > 91.2 µM (inactive); EC50 [9]: > 91.2 µM (inactive)

For CC(C)CC#Cc1ccc2c(c1)O[C@H](CN(C)C(=O)c1ccccc1)[C@H](C)CN([C@H](C)CO)S2(=O)=O, which AC50 [10] is on record?
The AC50 was 27.2 µM (active).

And the AC50 [11]?
The AC50 was 27.5 µM (active).

With COc1ccccc1C#Cc1ccc2c(c1)O[C@@H](CN(C)Cc1cccnc1)[C@@H](C)CN([C@H](C)CO)S2(=O)=O as the compound, how does the AC50 [10] read?
The AC50 was 25.4 µM (active).

What about the AC50 [11] of the same compound?
The AC50 was 9.3 µM (active).

Which AC50 [12] does the source give for C[C@@H]1CN([C@H](C)CO)C(=O)c2cc(NS(=O)(=O)c3ccc(F)cc3)ccc2O[C@@H](C)CCCCO[C@H]1CN(C)S(=O)(=O)c1ccc(Cl)cc1 here?
The AC50 was 32 µM (active).

And the AC50 [13]?
The AC50 was 2.97 µM (active).

What about the AC50 [14] of the same compound?
Its AC50 is > 70 µM (inactive).

And the AC50 (Paired box protein Pax-8)?
The AC50 was 6.83 µM (active).

For COC(=O)C1=C(C)N(Cc2ccccc2)C(=S)NC1c1ccc(Cl)cc1 (stereo not drawn), which AC50 (Cryptococcus neoformans) is on record?
The AC50 was 28.7 µM (active).

Which AC50 [15] does the source give for COc1cccc(S(=O)(=O)N(C)C[C@@H]2OCc3ccccc3-c3c(n(C)c4ccccc34)C(=O)N([C@H](C)CO)C[C@@H]2C)c1 here?
The AC50 was 0.322 µM (active).

What about the AC50 [16] of the same compound?
The AC50 was 0.476 µM (active).

And the AC50 [14]?
The AC50 was 38.6 µM (active).

What about the AC50 (Paired box protein Pax-8) of the same compound?
The AC50 was 6.87 µM (active).

What about the AC50 [17] of the same compound?
Its AC50 is 0.832 µM (active).

What about the AC50 [18] of the same compound?
The AC50 was 0.46 µM (active).

With Cc1ccc(-c2nnc3ccc4c(C(F)(F)F)cc(C(F)(F)F)nc4n23)cc1 as the compound, how does the AC50 [19] read?
Its AC50 is > 70 µM (inactive).

With C[C@H]1CN([C@@H](C)CO)C(=O)Cc2cc(NC(=O)Nc3ccc(C(F)(F)F)cc3)ccc2O[C@@H]1CN(C)C(=O)Nc1ccc2c(c1)OCO2 as the compound, how does the AC50 [15] read?
The AC50 was 0.9 µM (active).

And the AC50 [16]?
Its AC50 is 1.11 µM (active).

What about the AC50 [17] of the same compound?
The AC50 was 1.51 µM (active).

What about the AC50 [18] of the same compound?
Its AC50 is 0.93 µM (active).

For Cc1ccc(Cl)c(Nc2ccccc2C(=O)[O-])c1Cl.O.[Na+] [MECLOFENAMATE SODIUM], which IC50 [20] is on record?
Its IC50 is 15.1 µM (inactive).

And the IC50 [21]?
Its IC50 is > 20 µM (inactive).

What about the IC50 [22] of the same compound?
The IC50 was > 20 µM (inactive).

And the IC50 [23]?
Its IC50 is > 20 µM (inactive).

And the AC50 (Cytochrome P450 3A4)?
Its AC50 is “inconclusive”.

And the IC50 [24]?
The IC50 was > 20 µM (inactive).

What about the IC50 [25] of the same compound?
Its IC50 is > 20 µM (inactive).

And the IC50 [26]?
Its IC50 is > 20 µM (inactive).
